Calls of active or inactive are those of the source.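 How the source made its calls: active means mean EC50 of 20 µM or lower; inactive means the rest.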 Bounds are passed on as bounds.

For the test, the target named is CHO-CHOP luciferase reporter, UPR apoptotic arm activation. Description: PERK-eIF2a-CHOP apoptotic UPR arm activators, SAR follow-up, counter-screen for UPR adaptive arm activator project, CHO-CHOP cells, luminescence (AID 540306).
Broadly, the EC50 is the concentration needed to bring the measured effect to its halfway point. Take `Cc1ccnc(Nc2nc(-c3ccccc3)cc(=O)[nH]2)n1`: the EC50 was > 80 µM (inactive).

Regarding `Cc1cc(=O)[nH]c(Nc2nc(C)c3ccccc3n2)n1`, the EC50 is > 80 µM (inactive).

Turning to `Cc1cc(-c2ccccc2)nc(Nc2nc(C)c3ccccc3n2)n1`, the EC50 was > 80 µM (inactive). The value for `Cc1nc(Nc2ncccn2)nc2ccccc12` was > 80 µM (inactive). The value for `COc1cc(-c2ccccc2)nc(Nc2nc(C)c3ccccc3n2)n1` was > 80 µM (inactive).

For the compound `Cc1ccnc(Nc2ncccn2)n1`, the EC50 was > 80 µM (inactive). As to `Cc1nc(Nc2nc(-c3ccccc3)cc(=O)[nH]2)nc2ccccc12`, the EC50 is > 80 µM (inactive). Under `Cc1nc(Nc2nccc(-c3ccccc3)n2)nc2ccccc12` stands “inactive”.
